What all share (experiment): Cysteine liganding, probe competition
Common to all, as to type: binding

Assay [1] concerns the target T1, BACH1 Transcription regulator protein BACH1 (Homo sapiens, UniProt O14867).
T1 construct: Cells were resuspended in cold PBS on ice and sonicated with a probe sonicator to achieve lysis; endogenous in cells
T1 sequence (O14867 1-736): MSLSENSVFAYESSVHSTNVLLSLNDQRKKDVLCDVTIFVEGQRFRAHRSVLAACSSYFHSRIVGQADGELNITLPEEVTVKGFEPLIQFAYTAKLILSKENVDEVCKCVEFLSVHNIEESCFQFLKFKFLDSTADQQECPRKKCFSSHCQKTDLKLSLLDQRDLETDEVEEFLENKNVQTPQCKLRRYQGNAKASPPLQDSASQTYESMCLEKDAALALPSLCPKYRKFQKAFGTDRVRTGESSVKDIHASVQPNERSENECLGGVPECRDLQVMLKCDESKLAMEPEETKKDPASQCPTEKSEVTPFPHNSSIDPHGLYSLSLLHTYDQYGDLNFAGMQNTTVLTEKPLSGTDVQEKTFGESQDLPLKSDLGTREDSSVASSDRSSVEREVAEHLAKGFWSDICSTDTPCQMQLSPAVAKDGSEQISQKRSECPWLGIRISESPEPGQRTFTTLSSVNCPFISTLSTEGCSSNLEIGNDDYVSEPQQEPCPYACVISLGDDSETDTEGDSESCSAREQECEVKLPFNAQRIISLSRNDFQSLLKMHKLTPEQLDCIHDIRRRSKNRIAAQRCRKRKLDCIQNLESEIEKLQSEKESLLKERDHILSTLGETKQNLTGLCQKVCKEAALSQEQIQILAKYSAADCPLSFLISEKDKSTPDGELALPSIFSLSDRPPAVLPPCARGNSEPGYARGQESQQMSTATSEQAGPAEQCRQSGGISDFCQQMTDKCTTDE
The settings on record: for Liganded: BACH1 Res# 224, uniprot O14867. In short, it runs like this:
(§1)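 Read-out is loss of desthiobiotin iodoacetamide labelling at cysteines, measured on streptavidin-enriched tryptic peptides. Compound preincubation ran 1 hr at 25° C in PBS lysate holding 5 mg/ml proteome before the probe was added.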

The target in assay [2] is T2, CKMT1B Creatine kinase U-type, mitochondrial (Homo sapiens, UniProt P12532).
T2 construct: 200 μL of lysate containing 5 mg/ml proteome was treated with 2 μL of 100× compound stock; endogenous in cells
The settings on record: for Liganded: CKMT1B Res# 316, uniprot P12532. In short, it runs like this:
as §1

In assay [3] the target is T3, UBR4 E3 ubiquitin-protein ligase UBR4 (Homo sapiens, UniProt Q5T4S7).
T3 construct: Cells were resuspended in cold PBS on ice and sonicated with a probe sonicator to achieve lysis; endogenous in cells
In short, it runs like this:
as §1

T3 sequence (Q5T4S7 whole entry): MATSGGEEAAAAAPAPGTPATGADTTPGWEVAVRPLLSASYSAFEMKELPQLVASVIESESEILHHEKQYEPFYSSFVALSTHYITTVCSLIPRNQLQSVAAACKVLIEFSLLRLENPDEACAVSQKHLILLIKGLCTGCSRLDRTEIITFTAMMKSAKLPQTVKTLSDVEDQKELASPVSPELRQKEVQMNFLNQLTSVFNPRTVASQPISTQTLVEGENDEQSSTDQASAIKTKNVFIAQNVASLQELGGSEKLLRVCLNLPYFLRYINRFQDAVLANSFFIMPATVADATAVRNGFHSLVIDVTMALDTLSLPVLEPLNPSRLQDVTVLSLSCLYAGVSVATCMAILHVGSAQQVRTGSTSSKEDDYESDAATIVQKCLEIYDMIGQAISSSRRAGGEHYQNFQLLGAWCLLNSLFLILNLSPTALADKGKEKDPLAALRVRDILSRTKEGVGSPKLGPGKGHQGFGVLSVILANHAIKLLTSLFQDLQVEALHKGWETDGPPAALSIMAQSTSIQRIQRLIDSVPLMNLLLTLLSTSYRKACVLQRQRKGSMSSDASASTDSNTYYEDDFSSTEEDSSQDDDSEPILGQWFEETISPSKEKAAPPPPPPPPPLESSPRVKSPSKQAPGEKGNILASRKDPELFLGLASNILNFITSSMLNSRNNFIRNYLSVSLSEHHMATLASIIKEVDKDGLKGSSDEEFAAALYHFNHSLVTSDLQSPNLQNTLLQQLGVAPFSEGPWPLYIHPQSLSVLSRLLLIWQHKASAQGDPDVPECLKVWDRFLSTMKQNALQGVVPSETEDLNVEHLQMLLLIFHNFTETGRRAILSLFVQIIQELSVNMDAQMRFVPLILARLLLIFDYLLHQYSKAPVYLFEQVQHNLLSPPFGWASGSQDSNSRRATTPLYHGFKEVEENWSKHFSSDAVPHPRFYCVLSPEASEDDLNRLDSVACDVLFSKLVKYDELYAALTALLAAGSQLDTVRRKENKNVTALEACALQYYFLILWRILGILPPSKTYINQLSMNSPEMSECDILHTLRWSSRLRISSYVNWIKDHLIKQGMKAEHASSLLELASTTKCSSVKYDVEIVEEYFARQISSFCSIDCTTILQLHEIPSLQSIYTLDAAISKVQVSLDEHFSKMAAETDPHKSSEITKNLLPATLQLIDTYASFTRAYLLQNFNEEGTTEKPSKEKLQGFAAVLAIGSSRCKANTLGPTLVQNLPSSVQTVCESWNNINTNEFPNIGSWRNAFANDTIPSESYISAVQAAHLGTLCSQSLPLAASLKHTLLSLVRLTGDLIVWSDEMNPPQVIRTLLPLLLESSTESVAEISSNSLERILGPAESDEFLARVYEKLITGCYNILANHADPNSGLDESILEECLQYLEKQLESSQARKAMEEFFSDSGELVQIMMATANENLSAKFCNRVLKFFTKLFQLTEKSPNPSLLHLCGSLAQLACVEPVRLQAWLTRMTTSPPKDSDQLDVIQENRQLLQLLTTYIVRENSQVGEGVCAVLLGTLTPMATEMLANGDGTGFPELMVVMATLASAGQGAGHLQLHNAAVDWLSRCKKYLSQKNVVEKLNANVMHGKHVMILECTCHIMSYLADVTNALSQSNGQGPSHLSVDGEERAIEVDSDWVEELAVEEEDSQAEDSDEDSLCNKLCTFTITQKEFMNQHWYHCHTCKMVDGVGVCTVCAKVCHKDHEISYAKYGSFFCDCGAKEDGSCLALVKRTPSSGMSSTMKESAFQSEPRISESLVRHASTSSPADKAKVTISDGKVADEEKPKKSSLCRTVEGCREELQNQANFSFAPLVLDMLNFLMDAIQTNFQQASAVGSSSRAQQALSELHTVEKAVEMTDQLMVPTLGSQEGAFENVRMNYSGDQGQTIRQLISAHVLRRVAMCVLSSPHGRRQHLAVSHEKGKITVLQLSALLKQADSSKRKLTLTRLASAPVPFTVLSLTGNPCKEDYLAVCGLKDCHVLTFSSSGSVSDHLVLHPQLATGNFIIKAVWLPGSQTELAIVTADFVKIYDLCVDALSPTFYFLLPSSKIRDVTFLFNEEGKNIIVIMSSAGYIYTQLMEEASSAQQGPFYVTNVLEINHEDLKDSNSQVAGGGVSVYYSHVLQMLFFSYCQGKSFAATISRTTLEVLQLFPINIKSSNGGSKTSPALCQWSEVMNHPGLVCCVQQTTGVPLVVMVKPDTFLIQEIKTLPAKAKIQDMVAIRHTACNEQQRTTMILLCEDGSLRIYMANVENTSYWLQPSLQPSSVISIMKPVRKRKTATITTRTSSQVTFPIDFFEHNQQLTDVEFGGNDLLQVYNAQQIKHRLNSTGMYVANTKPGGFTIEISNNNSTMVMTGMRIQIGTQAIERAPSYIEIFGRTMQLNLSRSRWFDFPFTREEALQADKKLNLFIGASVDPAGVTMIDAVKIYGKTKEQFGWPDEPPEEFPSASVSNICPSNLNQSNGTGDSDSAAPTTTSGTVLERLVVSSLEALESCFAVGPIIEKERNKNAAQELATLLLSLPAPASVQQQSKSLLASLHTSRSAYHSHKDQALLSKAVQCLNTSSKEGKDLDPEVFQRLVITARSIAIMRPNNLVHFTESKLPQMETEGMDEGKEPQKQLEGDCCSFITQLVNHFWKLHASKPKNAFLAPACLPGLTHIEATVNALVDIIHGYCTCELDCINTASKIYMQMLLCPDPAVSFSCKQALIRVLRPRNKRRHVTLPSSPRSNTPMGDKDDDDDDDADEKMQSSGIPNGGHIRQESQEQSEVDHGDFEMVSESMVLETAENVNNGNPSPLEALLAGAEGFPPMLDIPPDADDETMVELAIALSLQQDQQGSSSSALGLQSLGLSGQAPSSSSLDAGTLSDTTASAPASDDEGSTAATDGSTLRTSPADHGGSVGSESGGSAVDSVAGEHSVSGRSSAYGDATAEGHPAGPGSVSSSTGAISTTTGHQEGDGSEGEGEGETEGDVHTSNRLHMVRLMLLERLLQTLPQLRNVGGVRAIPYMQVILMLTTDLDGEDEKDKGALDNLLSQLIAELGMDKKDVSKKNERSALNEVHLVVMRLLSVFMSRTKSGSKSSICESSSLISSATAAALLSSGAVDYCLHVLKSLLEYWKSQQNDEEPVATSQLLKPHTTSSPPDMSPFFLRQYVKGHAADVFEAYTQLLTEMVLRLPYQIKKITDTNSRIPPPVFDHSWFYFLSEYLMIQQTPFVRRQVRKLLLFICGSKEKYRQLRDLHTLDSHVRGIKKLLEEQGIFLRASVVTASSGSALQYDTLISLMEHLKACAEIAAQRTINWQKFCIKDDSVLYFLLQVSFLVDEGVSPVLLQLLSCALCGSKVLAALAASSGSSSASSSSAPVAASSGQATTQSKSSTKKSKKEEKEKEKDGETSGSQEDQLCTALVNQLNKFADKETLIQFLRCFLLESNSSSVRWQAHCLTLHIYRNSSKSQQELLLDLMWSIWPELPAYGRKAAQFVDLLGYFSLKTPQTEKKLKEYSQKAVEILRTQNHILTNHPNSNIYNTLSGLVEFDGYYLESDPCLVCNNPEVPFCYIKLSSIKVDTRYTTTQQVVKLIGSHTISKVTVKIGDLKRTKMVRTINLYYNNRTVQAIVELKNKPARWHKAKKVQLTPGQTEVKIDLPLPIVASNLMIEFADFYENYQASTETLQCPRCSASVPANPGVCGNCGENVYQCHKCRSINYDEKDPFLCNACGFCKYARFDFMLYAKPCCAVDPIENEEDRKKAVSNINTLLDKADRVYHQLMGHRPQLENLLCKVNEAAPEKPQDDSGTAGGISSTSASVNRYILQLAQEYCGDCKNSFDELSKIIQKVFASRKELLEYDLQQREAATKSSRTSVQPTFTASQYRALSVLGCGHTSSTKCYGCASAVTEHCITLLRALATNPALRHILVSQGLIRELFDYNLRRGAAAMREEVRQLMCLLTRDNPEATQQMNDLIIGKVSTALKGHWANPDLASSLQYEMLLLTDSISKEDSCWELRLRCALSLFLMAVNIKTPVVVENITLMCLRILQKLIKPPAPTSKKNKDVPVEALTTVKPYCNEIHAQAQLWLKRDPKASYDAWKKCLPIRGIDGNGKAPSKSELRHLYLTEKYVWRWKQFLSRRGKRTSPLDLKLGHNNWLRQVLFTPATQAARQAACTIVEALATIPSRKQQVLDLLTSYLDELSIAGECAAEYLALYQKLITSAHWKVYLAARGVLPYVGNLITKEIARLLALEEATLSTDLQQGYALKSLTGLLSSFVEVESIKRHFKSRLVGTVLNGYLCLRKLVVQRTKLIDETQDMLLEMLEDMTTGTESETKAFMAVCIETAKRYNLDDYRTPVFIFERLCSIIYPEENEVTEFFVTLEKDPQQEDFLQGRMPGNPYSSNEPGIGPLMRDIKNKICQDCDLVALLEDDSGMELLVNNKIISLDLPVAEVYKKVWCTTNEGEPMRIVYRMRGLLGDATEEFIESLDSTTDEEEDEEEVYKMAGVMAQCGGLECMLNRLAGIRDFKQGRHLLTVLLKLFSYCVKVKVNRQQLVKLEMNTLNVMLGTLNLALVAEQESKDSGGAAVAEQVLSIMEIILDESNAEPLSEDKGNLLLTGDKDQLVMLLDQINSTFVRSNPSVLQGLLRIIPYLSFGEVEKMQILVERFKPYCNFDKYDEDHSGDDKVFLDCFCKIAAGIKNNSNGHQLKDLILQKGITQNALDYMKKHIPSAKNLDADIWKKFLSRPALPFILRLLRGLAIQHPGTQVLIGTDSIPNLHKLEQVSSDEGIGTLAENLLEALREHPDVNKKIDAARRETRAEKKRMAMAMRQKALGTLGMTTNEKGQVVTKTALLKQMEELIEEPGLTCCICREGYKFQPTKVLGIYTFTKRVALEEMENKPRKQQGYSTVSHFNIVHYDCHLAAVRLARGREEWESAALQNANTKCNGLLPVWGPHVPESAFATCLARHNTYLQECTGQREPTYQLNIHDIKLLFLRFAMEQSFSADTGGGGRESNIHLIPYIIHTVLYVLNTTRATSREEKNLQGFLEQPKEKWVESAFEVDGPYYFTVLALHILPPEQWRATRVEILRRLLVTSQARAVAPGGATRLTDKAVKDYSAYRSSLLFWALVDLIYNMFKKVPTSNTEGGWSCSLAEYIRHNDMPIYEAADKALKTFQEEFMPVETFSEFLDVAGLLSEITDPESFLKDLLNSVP

Consider `COc1ccc2c(c1)CCCN2C(=O)CCl` [KB02], for which the Liganded result in assay [1] is recorded as “YES”; in assay [2], “YES”; in assay [3] (UBR4 Res# 4049, uniprot Q5T4S7), “YES”.
As to `O=C(CCl)Nc1cc(C(F)(F)F)cc(C(F)(F)F)c1` [KBO3], the Liganded entry in assay [1] and in assay [2] was “YES” in each case. In addition, the entries for the “100 Max” value in assay [1] (uniprot O14867), in assay [2] (uniprot P12532) and in assay [3] (uniprot Q5T4S7) were 53.8, 42.35 and 13.1, respectively. The 100 ave in assay [1] (uniprot O14867) is 53.8; in assay [2] (uniprot P12532), 29.59; in assay [3] (uniprot Q5T4S7), −4.9. The “500 Max” value was 85.3 in assay [1] (uniprot O14867); 86.19 in assay [2] (uniprot P12532, in % (unit assumed)); 49.5 in assay [3] (uniprot Q5T4S7). Moreover, the 500 ave is given as 85.3 in assay [1] (uniprot O14867), 81.71 in assay [2] (uniprot P12532) and 29.3 in assay [3] (uniprot Q5T4S7).

Source of the values: patent US20200239530A1, “COMPOUNDS AND METHODS OF MODULATING PROTEIN DEGRADATION” (Vividion Therapeutics, Inc., priority 2017, published 2020).
